The values that follow come from publication PMC4673899 (Analytical biochemistry, 2010).

Assay [1] deals with histone H3K9me3 peptide (Homo sapiens) (UniProt P68431). The assay is described as follows: SPR. The conditions noted are these: cited from earlier work.
Assay [2] deals with T1, JMJD2E (Homo sapiens, UniProt B2RXH2).
T1 sequence (B2RXH2 1-337): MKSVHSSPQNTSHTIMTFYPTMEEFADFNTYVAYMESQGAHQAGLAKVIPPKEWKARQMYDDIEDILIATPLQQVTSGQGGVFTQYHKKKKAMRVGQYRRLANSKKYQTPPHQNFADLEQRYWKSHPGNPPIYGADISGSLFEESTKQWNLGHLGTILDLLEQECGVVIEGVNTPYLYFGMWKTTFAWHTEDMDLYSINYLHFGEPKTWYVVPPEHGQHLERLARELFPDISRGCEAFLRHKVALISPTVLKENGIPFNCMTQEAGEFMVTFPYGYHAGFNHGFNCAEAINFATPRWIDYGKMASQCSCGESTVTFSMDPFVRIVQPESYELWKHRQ
The assay is described as follows: JMJD2E-peptide binding AlphaScreen assay.

The target in assay [3] is T1, JMJD2E. The conditions noted are these: read-out: IC50 (FDH), cited from earlier work.
For assay [4], the target named is T1, JMJD2E. The conditions noted are these: cited from earlier work.
Assay [5] addresses T2, N-terminally His-tagged catalytic domain of recombinant JMJD2E (residues 1-337) (UniProt B2RXH2 1-337).
T2 sequence (looked up): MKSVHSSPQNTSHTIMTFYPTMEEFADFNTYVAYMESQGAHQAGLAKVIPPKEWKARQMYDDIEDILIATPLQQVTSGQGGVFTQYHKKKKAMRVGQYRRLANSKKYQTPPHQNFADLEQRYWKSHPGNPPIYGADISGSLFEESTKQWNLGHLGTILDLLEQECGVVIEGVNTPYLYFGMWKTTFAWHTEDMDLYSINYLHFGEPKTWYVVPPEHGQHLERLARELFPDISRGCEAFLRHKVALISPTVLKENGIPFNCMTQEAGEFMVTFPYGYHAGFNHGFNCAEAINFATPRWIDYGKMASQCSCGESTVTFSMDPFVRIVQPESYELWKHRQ
The assay is described as follows: AlphaScreen or HTRF.

Where two headings read alike, the source gives them in different places. Primed or numbered codes have the meaning given here. Ends that are not written are not given here. Me3 = trimethyl on the lysine side chain; Me3″ = trimethyl (on lysine)

Sequence of JMJD2A (O75164 2-1064): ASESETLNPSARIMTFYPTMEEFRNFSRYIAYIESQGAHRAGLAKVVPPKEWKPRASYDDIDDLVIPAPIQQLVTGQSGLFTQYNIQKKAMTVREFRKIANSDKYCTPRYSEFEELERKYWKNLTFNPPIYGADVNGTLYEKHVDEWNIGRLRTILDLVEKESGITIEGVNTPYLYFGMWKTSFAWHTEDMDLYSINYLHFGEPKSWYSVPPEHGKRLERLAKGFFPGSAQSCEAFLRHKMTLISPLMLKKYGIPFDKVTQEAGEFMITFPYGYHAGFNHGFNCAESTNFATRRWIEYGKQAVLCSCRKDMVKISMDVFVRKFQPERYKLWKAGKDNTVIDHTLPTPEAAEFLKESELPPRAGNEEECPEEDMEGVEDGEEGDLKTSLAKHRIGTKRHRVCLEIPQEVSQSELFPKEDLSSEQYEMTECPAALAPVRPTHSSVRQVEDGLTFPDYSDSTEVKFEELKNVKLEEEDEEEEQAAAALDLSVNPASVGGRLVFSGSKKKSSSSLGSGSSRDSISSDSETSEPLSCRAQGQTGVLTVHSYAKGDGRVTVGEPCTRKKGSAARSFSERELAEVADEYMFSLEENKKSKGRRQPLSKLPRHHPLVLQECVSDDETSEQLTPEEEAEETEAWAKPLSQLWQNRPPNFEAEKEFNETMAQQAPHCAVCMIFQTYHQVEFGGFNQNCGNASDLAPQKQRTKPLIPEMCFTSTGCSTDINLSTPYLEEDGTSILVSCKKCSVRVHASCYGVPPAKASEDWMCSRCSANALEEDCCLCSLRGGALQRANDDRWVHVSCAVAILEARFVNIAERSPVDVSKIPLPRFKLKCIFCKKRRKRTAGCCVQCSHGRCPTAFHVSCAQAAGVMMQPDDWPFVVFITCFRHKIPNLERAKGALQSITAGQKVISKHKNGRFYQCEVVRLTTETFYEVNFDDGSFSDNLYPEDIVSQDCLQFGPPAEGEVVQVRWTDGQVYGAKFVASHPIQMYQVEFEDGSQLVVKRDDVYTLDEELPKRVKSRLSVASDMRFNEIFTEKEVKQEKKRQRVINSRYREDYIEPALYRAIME

As for JMJD2A (from UniProt O75164), in assay [1], the Kd is 1 µM.

Regarding “H3(6-21)K9Me3: histone H3 residues 6-21 peptide with tri-methyl lysine 9 (TARK(Me3″)STGGKAPRKQLA-NH2)”, the “relative JMJD2E affinity in the binding assay” value with JMJD2E [2] (competition of unlabelled peptide with biotin-H3(1-15)K9Me3) is “higher JMJD2E affinity than H3(1-15)K9Me3”.

Turning to `O=C(O)c1cccnc1C(=O)O` [Compound 2, 2,3-PDCA], the IC50 on JMJD2E [3] was above 5000 µM.

With `O=C(O)CCC(=O)C(=O)O` [Compound 2OG, 2-oxoglutarate], at JMJD2E [2] (JMJD2E pre-incubated with 2OG prior to biotinylated-H3(1-15)K9Me3), the “concentration at signal maximum in binding assay” value lay in the range of 10 to 30 µM. Moreover, the Michaelis constant (Km) at JMJD2E [4] was 14 µM.

As to `O=C(O)c1ccc(C(=O)O)nc1` [Compound 3, 2,5-PDCA], at JMJD2E [3] (listed as 2,5-PDCA (3)), the IC50 is 180 µM.

For `O=C(O)c1ccc(C(=O)O)nc1` [Compound 4, 3,6-PDCA], the IC50 at JMJD2E [3] (listed as 3,6-PDCA (4)) is above 1000 µM.

For the molecule TARK(Me3)STGGKAPRKQLA-NH2 (peptide, UniProt P68431 7-22, looked up) [H3(6-21)K9Me3 peptide], the binding result in assay [5] is given as “binds”.

For ARTKQTARKSTGGKA (peptide, UniProt P68431 2-16, looked up, trimethyl-lysine at K9; C-terminal amide) [unlabelled H3(1-15)K9Me3 peptide], the IC50 in assay [5] was 1.2 µM.
